# Measurements as given in article PMC9501899 (Journal of the American Chemical Society, 2022).
# Where two headings read alike, the source gives them in different places.
# Columns and labels:
# WT LRRK2 = target: T1, WT LRRK2 (Mus musculus, UniProt Q5S006); assay: LRRK2 degradation in WT MEFs by Western blotting; type: cell-based
# T1 construct: endogenous in cells; host or cells: wild-type primary MEFs
# Description: (§1) These PROTACs were then biologically evaluated in mouse embryonic fibroblasts (MEFs) by Western blotting. Briefly, MEFs were treated with compounds at 33 nM and 1 μM for 4 h (Figure 2) and 24 h (Figure S2) separately, and the intracellular level of LRRK2, phosphorylated LRRK2 at Ser935, and phosphorylated Rab10 (pRab10) at Thr73 was determined. Rab10[5],[49] is one of the bona fide substrates of LRRK2, whose phosphorylation status is directly affected by the LRRK2 kinase activity and protein level. Phosphorylation of LRRK2 at Ser935 is a well-studied biomarker site used to assess the efficacy of type 1 LRRK2 inhibitors.[30]
# (§2) Primary MEFs were generated as described in a previous study.[80] Briefly, the uterine horn was collected from adult female mice at day E12.5 and transferred to a 10 cm tissue culture dish containing cold PBS. Two forceps were used to tear the yolk sacs to isolate each embryo. Forceps were cleaned thoroughly with 70% ethanol between each embryo isolation. The embryos were culled, and a tissue piece was collected in a polymerase chain reaction (PCR) tube for genotyping. The red tissue of the embryo was removed, and the remainder was minced with a scalpel blade and incubated with a 7.5 mL trypsin–ethylenediaminetetraacetic acid (EDTA) solution for 10 min in a 37 °C, 5% CO2 tissue culture incubator. The dish was removed from the incubator and checked under a light microscope for single cells. Complete media (7.5 mL) was added to the trypsinized cells, and the cell suspension was transferred to a 15 mL Falcon tube and centrifuged at 1200 rpm for 5 min at room temperature. The trypsin was aspirated, the cell pellet was resuspended in a 5 mL fresh complete media, and the cell suspension was plated in a 60 mm tissue culture dish and incubated in a 37 °C, 5% CO2 tissue culture incubator. The MEFs at this stage were considered as passage 0 and were passaged and expanded for experimental use once the genotype was confirmed by allelic sequencing and immunoblotting. MEFs were cultured in Dulbecco’s modified Eagle’s medium (DMEM) containing 10% (v/v) fetal bovine serum (FBS), 2 mM L-glutamine, 100 U/mL penicillin, and 100 μg/mL streptomycin supplemented with 1× nonessential amino acids and 1 mM sodium pyruvate.
# (§3) Culturing and passaging of adherent cell lines were carried out using an aseptic technique in CL1 or CL2 (for PBMC isolation) biological safety cabinets. All cells were incubated in a 37 °C incubator with 5% CO2. Cell lines were regularly tested for mycoplasma contamination. For Western blot assay, the cells were seeded in six-well plates. For immunoprecipitation of LRRK2, SH-SY5Y cells (cultured in DMEM-F12, supplemented with 15% (v/v) FBS, 100 U/mL penicillin and 100 μg/mL streptomycin, 1× nonessential amino acids, and 1 mM sodium pyruvate) were seeded in a 10 cm dish. All cells were treated with the indicated compounds such that the final concentration of DMSO was 0.1%. Following the treatment of cells with compounds at indicated concentrations and time periods, the media was removed and the cells were washed with PBS and lysed in a 100 μL ice-cold complete lysis buffer containing 50 mM tris–HCl pH 7.4, 1 mM EGTA, 10 mM 2-glycerophosphate, 50 mM sodium fluoride, 5 mM sodium pyrophosphate, 270 mM sucrose, supplemented with 1 μg/mL microcystin-LR, 1 mM sodium orthovanadate, complete EDTA-free protease inhibitor cocktail (Roche), and 1% (v/v) Triton X-100. The cells were immediately placed on ice and were scraped and collected into 1.5 mL Eppendorf tubes. Cell lysates were incubated on ice for 10 min prior to centrifugation at 15 000g at 4 °C for 15 min.
# G2019S LRRK2 = target: T2, G2019S LRRK2 (Mus musculus, UniProt Q5S006, G2019S); assay: LRRK2 degradation in G2019S LRRK2 MEFs by Western blotting; type: cell-based; settings: for Dmax: dose-dependent degradation
# T2 construct: endogenous in cells; host or cells: G2019S LRRK2 MEFs
# Description: as §1, §2, §3
# Rab10-pThr73 [1] = assay: Rab10 dephosphorylation in WT MEFs by Western blotting; type: cell-based, mouse
# Description: as §1, §2, §3
# Rab10-pThr73 [2] = assay: Rab10 dephosphorylation in G2019S LRRK2 MEFs by Western blotting; type: cell-based, mouse
# Description: as §1, §2, §3
# [3] = target: T3, LRRK2-NanoLuc with VCB protein (Homo sapiens, UniProt P40337+Q5S007); assay: NanoBRET-based ternary binding and cooperativity assay; settings: for IC50: compound preincubated with VCB, lysate of HEK293 cells, LRRK2 tracer; for cooperativity (α): IC50 ratio without/with VCB
# T3 construct: host or cells: HEK293 (digitonin-permeabilized), recombinant VCB added
# Description: (A). Schematic illustration of the binary and ternary LRRK2 engagement assays. […] The fractional occupancy of the tracer is plotted against the concentrations of the compounds and fitted into the “nonlinear regression, one site-log IC50” model in GraphPad to obtain the IC50 values. The IC50 ratio between the blue curve and red cure is calculated as cooperativity (α). […] The NanoBRET signal was plotted against the compounds’ concentrations and fitted into “nonlinear regression, Gaussian” model in GraphPad. Error bars are mean ± SEM from three biological independent experiments.
# Titration of PROTACs to the lysed cells and LRRK2 tracer in the presence or absence of recombinant VCB protein (VHL complexed with elongin B–elongin C) gives ternary and binary binding affinities of PROTACs for LRRK2, respectively. Similarly, the ternary complex formation assay also used LRRK2-NanoLuc transiently expressed in HEK293 as the BRET donor, but the acceptor was recombinant VCB protein labeled with BODIPY^576/589via the NHS ester-activated cross-linking reaction. PROTACs that can bridge LRRK2 and VCB together will produce a BRET signal (Figure 10E).
# The HEK293 cells were transfected with the LRRK2-NanoLuc fusion vector (Promega, NV3401) following Promega’s protocol and seeded into a white 384-well plate (Corning3570) at a density of 6000 cells/well. The cells were then treated with 50 μg/mL of digitonin, 125 nM of LRRK2 tracer, testing compounds at decreasing concentrations (11 concentrations with a 2-fold serial dilution starting from 10 μM) or testing compounds and VCB mix (11 concentrations with a 2-fold serial dilution starting from 10 μM compound). The first six concentrations of VCB start from 32 μM with a 2-fold dilution, while the last five concentrations of VCB were kept fixed at 1 μM. The NanoBRET NanoGlo Substrate (Promega, N157C) was added at concentrations recommended by the manufacturer’s protocol. In the maximum signal control samples (DMSO control), DMSO was added instead of testing compounds. In the minimum signal control samples (no tracer control), DMSO and LRRK2 tracer dilution buffer were used to replace testing compounds and LRRK2 tracer separately. The filtered luminescence was measured within 10 min following the addition of the substrate on a PHERAstar (BMG LABTECH) plate reader equipped with a 450 nm bandpass filter (donor) and a 600 nm long-pass filter (acceptor). The fractional occupancy was calculated according to the equation: fractional occupancy = (mBRETtesting compound – mBRETno tracer control)/(mBRETDMSO control – mBRETno tracer control).
# [4] = Mus musculus, 4 h, G2019S LRRK2 MEFs, read-out: EC50 G2019S pRab10
# T2 sequence (Q5S006 whole entry G2019S): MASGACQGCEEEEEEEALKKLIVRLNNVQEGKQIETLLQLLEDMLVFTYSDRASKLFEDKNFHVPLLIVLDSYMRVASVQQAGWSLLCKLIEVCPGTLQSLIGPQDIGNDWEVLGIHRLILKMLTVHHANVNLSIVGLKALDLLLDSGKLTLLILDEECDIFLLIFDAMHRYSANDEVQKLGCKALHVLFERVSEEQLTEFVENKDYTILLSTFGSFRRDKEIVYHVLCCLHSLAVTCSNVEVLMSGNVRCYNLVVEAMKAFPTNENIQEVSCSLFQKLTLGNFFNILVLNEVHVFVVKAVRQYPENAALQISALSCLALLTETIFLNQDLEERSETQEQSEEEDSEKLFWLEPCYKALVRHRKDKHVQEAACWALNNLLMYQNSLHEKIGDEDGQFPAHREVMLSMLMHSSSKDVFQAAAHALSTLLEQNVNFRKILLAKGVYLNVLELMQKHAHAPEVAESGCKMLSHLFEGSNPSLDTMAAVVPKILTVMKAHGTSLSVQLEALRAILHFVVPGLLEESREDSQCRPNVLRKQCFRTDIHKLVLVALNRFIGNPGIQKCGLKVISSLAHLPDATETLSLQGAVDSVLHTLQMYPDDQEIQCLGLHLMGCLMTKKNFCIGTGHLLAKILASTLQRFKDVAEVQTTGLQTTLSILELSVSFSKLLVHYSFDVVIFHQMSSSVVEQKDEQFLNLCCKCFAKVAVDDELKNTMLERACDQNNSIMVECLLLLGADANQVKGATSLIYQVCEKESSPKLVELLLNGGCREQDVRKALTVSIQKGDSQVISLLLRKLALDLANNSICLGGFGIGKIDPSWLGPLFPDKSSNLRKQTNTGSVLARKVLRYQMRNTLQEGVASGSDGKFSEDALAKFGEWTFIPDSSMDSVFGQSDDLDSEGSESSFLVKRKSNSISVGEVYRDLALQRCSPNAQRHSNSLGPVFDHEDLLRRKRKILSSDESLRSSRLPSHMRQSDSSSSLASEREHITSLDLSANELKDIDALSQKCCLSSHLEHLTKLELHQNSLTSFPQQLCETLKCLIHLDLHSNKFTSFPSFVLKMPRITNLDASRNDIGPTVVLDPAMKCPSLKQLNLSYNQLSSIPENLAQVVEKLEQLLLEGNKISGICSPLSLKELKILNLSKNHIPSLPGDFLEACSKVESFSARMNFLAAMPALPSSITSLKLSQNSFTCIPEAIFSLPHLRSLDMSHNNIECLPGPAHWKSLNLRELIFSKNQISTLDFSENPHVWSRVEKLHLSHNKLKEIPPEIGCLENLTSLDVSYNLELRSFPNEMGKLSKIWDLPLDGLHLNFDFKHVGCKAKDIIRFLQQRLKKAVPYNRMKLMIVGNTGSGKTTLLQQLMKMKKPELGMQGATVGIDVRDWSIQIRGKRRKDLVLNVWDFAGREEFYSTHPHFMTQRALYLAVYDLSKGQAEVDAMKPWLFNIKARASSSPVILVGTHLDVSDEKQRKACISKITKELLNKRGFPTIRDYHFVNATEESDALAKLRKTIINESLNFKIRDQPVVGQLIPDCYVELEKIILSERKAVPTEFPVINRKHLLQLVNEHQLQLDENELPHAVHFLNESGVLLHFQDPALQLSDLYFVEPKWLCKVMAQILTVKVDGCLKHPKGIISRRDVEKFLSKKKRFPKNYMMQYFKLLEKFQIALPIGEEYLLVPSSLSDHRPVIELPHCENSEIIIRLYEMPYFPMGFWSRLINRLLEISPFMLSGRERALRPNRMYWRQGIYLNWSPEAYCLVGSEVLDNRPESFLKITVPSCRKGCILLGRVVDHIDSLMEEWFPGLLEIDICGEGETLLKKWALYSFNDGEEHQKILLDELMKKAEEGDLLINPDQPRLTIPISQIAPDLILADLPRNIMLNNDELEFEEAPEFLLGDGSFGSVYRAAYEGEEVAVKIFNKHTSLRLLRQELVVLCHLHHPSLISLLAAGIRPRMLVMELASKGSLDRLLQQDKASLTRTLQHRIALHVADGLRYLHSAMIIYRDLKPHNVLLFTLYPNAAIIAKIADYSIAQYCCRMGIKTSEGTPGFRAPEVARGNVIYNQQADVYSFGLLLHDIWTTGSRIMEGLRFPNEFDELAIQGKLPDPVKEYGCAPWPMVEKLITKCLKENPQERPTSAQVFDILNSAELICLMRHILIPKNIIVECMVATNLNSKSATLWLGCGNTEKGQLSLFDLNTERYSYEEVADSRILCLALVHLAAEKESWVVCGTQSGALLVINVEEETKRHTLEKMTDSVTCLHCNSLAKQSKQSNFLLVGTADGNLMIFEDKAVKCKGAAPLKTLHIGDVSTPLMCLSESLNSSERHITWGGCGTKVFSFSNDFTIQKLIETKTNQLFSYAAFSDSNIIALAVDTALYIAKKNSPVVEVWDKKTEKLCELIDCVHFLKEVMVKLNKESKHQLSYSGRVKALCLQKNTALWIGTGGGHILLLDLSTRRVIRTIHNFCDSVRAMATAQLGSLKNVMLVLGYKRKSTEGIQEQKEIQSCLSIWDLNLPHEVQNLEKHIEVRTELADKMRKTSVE
# T1 sequence (Q5S006 whole entry): as the sequence (Q5S006 whole entry G2019S) above, with S2019G counted along it
structure (smiles),measurement,setting,value
CNc1nc(Nc2ccc(C(=O)N3CCN(CCOCCOCCSC(C)(C)[C@H](NC(=O)C4(F)CC4)C(=O)N4C[C@H](O)C[C@H]4C(=O)NCc4ccc(-c5scnc5C)cc4)CC3)cc2OC)ncc1Cl [SD75],Dmax at 1 µM,"WT LRRK2; 1 μM (1000 nM), read-out: Dmax (WT LRRK2), time-dependent degradation",52%
same,Dmax,"WT LRRK2; dose-dependent degradation, 24 h",51%
same,Dmax at 1 µM,"G2019S LRRK2; 1 μM (1000 nM), read-out: Dmax (G2019S LRRK2), time-dependent degradation",81%
same,Dmax,"G2019S LRRK2; 24 h, read-out: Dmax,24h (G2019S LRRK2)",58%
same,WT-pRab10 percent label at the end of the time curve,Rab10-pThr73 [1]; 1 µM,41%
same,EC50,"Rab10-pThr73 [1]; Mus musculus, 24 h, WT MEFs, read-out: EC50 for the dephosphorylation of Rab10 (WT-pRab10)",2270 nM
same,GS-pRab10 percent label at the end of the time curve,Rab10-pThr73 [2]; 1 µM,74%
same,pRab10 dephosphorylated,Rab10-pThr73 [2]; 1 µM,75–90%
same,EC50,"Rab10-pThr73 [2]; Mus musculus, 24 h, G2019S LRRK2 MEFs, read-out: EC50 for the dephosphorylation of Rab10 (GS-pRab10)",379 nM
same,IC50,[3],1400 nM
"CNc1nc(Nc2ccc(C(=O)N3CCN(C[C@H]4CC[C@H](CSC(C)(C)[C@H](NC(=O)C5(F)CC5)C(=O)N5C[C@H](O)CC5C(=O)NCc5ccc(-c6scnc6C)cc5)CC4)CC3)cc2OC)ncc1Cl (stereo partly drawn) [XL01126, (2S,4R)-1-((R)-3-((((1R,4R)-4-((4-(4-((5-Chloro-4-(methylamino)pyrimidin-2-yl)amino)-3-methoxybenzoyl)piperazin-1-yl)methyl)cyclohexyl)methyl)thio)-2-(1-fluorocyclopropane-1-carboxamido)-3-methylbutanoyl)-4-hydroxy-N-(4-(4-methylthiazol-5-yl)benzyl)pyrrolidine-2-carboxamide]",DC50,WT LRRK2; 4 h,32 nM
same,DC50,G2019S LRRK2; 4 h,14 nM
same,WT-pRab10 percent label at the end of the time curve,Rab10-pThr73 [1]; 0.3 µM,94%
same,EC50,"Rab10-pThr73 [1]; Mus musculus, 4 h, WT MEFs, read-out: EC50 WT-pRab10",54 nM
same,inhibition at 0.033 µM,"Rab10-pThr73 [2]; Mus musculus, 33 nM/4 h, G2019S LRRK2 MEFs, read-out: pRab10 inhibited",> 60%
same,EC50,Rab10-pThr73 [2]; [4],15 nM
same,cooperativity (α),[3],5.7
same,IC50,[3],350 nM
CNc1nc(Nc2ccc(C(=O)N3CCN(C[C@H]4CC[C@@H](CSC(C)(C)[C@H](NC(=O)C5(F)CC5)C(=O)N5C[C@H](O)CC5C(=O)NCc5ccc(-c6scnc6C)cc5)CC4)CC3)cc2OC)ncc1Cl (stereo partly shown) [XL01134],Dmax at 0.3 µM,"WT LRRK2; 300 nM, read-out: Dmax,WT, time-dependent degradation",75%
same,DC50,WT LRRK2; 4 h,32 nM
same,DC50,G2019S LRRK2; 4 h,7 nM
same,Dmax,"G2019S LRRK2; 4 h, read-out: Dmax,4h (G2019S LRRK2)",81%
same,WT-pRab10 percent label at the end of the time curve,Rab10-pThr73 [1]; 0.3 µM,88%
same,IC50,"Rab10-pThr73 [1]; Mus musculus, 4 h, WT MEFs, read-out: WT-pRab10 IC50",74 nM
same,pRab10 inhibited,"Rab10-pThr73 [2]; 33 nM/4 h, G2019S LRRK2 MEFs",> 60%
same,IC50,"Rab10-pThr73 [2]; Mus musculus, 4 h, G2019S LRRK2 MEFs, read-out: GS-pRab10 IC50",12 nM
same,cooperativity (α),[3],1.4
same,IC50,[3],790 nM
"CNc1nc(Nc2ccc(C(=O)N3CCN(C[C@H]4CC[C@H](CSC(C)(C)[C@H](NC(=O)C5(F)CC5)C(=O)N5C[C@@H](O)C[C@H]5C(=O)NCc5ccc(-c6scnc6C)cc5)CC4)CC3)cc2OC)ncc1Cl [cis-XL01126, (2S,4S)-1-((R)-3-((((1R,4R)-4-((4-(4-((5-Chloro-4-(methylamino)pyrimidin-2-yl)amino)-3-methoxybenzoyl)piperazin-1-yl)methyl)cyclohexyl)methyl)thio)-2-(1-fluorocyclopropane-1-carboxamido)-3-methylbutanoyl)-4-hydroxy-N-(4-(4-methylthiazol-5-yl)benzyl)pyrrolidine-2-carboxamide]",degradation of WT LRRK2 (in words),WT LRRK2; 4 h,no degradation
same,degradation of G2019S LRRK2 (in words),G2019S LRRK2; 4 h,no degradation
same,EC50,Rab10-pThr73 [2]; [4],116 nM
